Activity calls are given as the source filed them. No cut-off for these calls is given here.
What was measured:
[1] = molecular target: T1, Tyrosine-protein kinase SYK (Homo sapiens, UniProt P43405); assay: Inhibition of SYK (unknown origin) using ULight-TK peptide as substrate incubated for 120 mins in presence of ATP by Lance Ultra Kinase assay
Splenocyte [2] = assay: Immunosuppressive activity in BALB/c mouse Splenocyte assessed as reduction in frequency of CD25 positive CD4 positive T cells at 100 to 400 nM incubated for 48 hrs by flow cytometry analysis; type: functional, cell-based; conditions: dose 100-400 nM
[3] = molecular target: T1, Tyrosine-protein kinase SYK; assay: Inhibition of SYK (unknown origin) using ULight-TK peptide as substrate at 1 uM incubated for 120 mins in presence of ATP by Lance Ultra Kinase assay relative to control
Splenocyte [4] = assay: Immunosuppressive activity in BALB/c mouse Splenocyte assessed as reduction in frequency of CD69 positive CD4 positive T cells at 400 nM incubated for 48 hrs by flow cytometry analysis (reference value: 21.3%); type: functional; set-up: scale not given: the % may be the effect or the level left
Splenocyte [5] = assay: Immunosuppressive activity in LPS-induced BALB/c mouse Splenocyte assessed as effect on CD69 expression at 100 to 400 nM incubated for 48 hrs by flow cytometry analysis; type: functional, cell-based; conditions: dose 100-400 nM
Splenocyte [6] = assay: Immunosuppressive activity in anti-CD3/CD28 stimulated BALB/c mouse Splenocyte assessed as reduction in IL-17A cytokine level incubated for 48 hrs by ELISA assay; type: functional, cell-based
Jurkat = assay: Immunosuppressive activity in anti-CD3/CD28 stimulated human Jurkat cells assessed as reduction in LAT phosphorylation level at 100 to 400 nM incubated for 48 hrs by Western blotting analysis; type: functional, cell-based; conditions: dose 100-400 nM
Mus musculus [7] = assay: Anti-inflammatory activity in imiquimod-induced BALB/c mouse psoriasis model assessed as decrease in clinical sign of psoriasis in skin at TOP administration, 2 % applied for 7 days; type: functional, organism-based; conditions: time 7.0 day
Mus musculus [8] = assay: Anti-inflammatory activity in imiquimod-induced BALB/c mouse psoriasis model assessed as decrease in splenomegaly at TOP administration, 2 % applied for 7 days; type: functional, organism-based; conditions: time 7.0 day
Mus musculus [9] = assay: Anti-inflammatory activity in imiquimod-induced BALB/c mouse psoriasis model assessed as reduction in skin inflammation at TOP administration, 2 % applied for 7 days; type: functional, organism-based; conditions: time 7.0 day
Mus musculus [10] = assay: Anti-inflammatory activity in imiquimod-induced BALB/c mouse psoriasis model assessed as […] in skin thickness at TOP administration, 2 % applied for 7 days by hematoxylin and eosin staining based assay; type: functional, organism-based; conditions: time 7.0 day
Mus musculus [11] = assay: Anti-inflammatory activity in imiquimod-induced BALB/c mouse psoriasis model assessed as reduction in immune cell infiltration at TOP administration, 2 % applied for 7 days by hematoxylin and eosin staining based assay; type: functional, organism-based; conditions: time 7.0 day
Splenocyte [12] = assay: Immunosuppressive activity in BALB/c mouse Splenocyte assessed as inhibition of concanavalin A induced T-cell proliferation incubated for 48 hrs by [3H]-thymidine incorporation based beta scintillation counter analysis; type: functional
[13] = molecular target: Tyrosine-protein kinase receptor UFO (Homo sapiens) (UniProt P30530); assay: Inhibition of AXL (unknown origin) at 1 uM relative to control
[14] = molecular target: Mitogen-activated protein kinase 8 (Homo sapiens) (UniProt P45983); assay: Inhibition of JNK1 (unknown origin) at 1 uM relative to control
[15] = molecular target: Mitogen-activated protein kinase 9 (Homo sapiens) (UniProt P45984); assay: Inhibition of JNK2 (unknown origin) at 1 uM relative to control
[16] = molecular target: Mitogen-activated protein kinase 10 (Homo sapiens) (UniProt P53779); assay: Inhibition of JNK3 (unknown origin) at 1 uM relative to control
[17] = molecular target: T2, Serine/threonine-protein kinase PLK4 (Homo sapiens) (UniProt O00444); assay: Inhibition of PLK4 (unknown origin) at 1 uM relative to control
T2 sequence (whole entry): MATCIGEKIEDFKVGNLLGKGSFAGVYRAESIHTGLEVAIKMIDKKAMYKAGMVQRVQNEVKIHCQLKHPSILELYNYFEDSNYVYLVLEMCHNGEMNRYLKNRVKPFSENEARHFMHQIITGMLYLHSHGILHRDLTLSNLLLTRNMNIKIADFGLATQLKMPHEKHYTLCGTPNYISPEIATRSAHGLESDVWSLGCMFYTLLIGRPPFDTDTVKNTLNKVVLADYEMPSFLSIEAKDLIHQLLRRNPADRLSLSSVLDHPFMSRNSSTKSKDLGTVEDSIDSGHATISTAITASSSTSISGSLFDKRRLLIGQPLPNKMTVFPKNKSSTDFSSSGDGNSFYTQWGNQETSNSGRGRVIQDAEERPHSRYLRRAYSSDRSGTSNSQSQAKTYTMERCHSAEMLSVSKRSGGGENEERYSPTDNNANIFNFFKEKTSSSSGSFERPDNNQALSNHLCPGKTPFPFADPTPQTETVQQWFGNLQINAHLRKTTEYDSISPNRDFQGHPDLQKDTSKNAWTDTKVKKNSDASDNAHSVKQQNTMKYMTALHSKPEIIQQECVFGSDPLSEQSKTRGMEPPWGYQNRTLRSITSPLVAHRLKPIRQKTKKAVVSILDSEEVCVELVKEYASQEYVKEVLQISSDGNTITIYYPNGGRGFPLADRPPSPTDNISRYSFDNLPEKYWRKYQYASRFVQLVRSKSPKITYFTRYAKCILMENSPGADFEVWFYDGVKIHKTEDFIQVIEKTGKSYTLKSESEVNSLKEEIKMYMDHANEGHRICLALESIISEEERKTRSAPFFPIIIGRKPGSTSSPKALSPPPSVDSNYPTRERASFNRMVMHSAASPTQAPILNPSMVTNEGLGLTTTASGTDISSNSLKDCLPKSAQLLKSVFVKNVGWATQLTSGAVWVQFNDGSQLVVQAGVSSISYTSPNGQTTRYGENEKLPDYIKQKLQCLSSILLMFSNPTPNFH

[18] = molecular target: T3, Tyrosine-protein kinase ZAP-70 (Homo sapiens) (UniProt P43403); assay: Inhibition of ZAP-70 (unknown origin) at 1 uM relative to control
T3 sequence (whole entry): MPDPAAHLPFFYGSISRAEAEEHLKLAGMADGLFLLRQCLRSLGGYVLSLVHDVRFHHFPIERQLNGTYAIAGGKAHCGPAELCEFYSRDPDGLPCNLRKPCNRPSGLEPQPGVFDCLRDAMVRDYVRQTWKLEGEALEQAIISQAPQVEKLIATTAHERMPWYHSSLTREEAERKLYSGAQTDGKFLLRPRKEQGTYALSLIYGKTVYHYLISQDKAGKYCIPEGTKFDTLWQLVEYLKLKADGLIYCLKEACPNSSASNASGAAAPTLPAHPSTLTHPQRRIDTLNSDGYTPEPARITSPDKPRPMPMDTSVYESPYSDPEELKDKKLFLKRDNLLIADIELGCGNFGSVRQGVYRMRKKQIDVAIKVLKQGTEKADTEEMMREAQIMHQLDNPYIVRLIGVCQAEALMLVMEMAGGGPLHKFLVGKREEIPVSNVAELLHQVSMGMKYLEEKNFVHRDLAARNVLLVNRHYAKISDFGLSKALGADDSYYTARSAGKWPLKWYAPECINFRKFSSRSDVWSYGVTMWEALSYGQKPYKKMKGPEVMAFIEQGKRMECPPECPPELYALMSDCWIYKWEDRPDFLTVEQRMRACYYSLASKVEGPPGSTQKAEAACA

Mitogen-activated protein kinase 10 (Homo sapiens), sequence (P53779 whole entry): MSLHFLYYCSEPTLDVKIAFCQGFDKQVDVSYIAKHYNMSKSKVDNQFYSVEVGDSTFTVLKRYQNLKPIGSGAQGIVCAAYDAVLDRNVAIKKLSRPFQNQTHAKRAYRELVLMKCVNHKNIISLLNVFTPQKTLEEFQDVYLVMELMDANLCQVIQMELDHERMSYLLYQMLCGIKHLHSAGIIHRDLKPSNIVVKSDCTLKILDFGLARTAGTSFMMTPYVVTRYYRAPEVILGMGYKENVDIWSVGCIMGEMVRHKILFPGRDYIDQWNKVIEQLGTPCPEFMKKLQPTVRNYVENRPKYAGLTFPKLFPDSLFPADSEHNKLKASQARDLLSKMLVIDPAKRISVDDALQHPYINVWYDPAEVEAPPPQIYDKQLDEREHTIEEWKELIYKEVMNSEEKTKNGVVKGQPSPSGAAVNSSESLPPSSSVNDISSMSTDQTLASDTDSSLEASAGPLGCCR
Tyrosine-protein kinase receptor UFO (Homo sapiens), sequence (P30530 whole entry): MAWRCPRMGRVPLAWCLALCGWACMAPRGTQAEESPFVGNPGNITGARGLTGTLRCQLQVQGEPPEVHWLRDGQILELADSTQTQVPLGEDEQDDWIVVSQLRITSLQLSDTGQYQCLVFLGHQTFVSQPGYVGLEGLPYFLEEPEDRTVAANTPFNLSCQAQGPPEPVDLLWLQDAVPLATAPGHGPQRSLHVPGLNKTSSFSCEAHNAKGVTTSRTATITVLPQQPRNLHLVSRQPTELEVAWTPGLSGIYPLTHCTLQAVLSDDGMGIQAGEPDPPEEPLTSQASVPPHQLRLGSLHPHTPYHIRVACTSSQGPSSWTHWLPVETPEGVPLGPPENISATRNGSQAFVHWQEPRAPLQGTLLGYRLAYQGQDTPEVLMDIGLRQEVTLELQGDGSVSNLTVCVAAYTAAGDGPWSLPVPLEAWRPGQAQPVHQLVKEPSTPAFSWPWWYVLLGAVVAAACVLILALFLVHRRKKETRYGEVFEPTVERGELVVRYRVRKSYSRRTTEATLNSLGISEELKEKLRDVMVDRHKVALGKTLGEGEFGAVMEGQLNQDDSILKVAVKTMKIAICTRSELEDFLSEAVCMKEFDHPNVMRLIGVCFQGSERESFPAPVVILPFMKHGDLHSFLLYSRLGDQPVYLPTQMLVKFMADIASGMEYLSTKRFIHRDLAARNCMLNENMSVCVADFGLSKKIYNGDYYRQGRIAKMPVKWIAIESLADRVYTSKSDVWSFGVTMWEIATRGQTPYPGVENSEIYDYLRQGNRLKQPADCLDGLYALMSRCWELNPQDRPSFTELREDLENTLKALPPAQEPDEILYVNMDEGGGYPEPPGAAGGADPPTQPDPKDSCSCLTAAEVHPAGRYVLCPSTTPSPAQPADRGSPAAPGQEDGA
Mitogen-activated protein kinase 8 (Homo sapiens), sequence (P45983 whole entry): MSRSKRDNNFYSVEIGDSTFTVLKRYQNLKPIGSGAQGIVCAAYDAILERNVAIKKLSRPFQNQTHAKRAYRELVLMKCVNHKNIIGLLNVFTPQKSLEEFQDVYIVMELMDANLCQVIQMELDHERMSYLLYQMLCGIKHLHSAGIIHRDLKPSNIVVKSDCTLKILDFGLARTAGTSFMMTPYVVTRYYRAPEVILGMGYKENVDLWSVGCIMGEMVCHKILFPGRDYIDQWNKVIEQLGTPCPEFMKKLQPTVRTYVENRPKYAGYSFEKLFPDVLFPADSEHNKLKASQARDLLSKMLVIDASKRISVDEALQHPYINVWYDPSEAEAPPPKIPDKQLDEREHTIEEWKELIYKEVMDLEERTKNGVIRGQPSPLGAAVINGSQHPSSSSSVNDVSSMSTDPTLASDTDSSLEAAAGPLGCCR
Mitogen-activated protein kinase 9 (Homo sapiens), sequence (P45984 whole entry, looked up): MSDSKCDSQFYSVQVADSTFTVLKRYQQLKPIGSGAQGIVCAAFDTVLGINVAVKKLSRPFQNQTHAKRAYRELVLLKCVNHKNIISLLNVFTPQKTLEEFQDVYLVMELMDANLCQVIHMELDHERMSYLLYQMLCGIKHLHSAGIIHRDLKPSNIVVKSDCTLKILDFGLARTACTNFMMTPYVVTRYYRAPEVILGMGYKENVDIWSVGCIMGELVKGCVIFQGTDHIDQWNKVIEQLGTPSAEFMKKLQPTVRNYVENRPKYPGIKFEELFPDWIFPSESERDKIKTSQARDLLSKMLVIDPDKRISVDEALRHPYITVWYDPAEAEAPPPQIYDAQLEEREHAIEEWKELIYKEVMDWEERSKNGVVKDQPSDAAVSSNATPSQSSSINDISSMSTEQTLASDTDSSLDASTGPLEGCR

- IC50 [1]: 1160 nM
- inhibition [3]: 72.5%
- inhibition [13]: > 90%
- inhibition [14]: > 90%
- inhibition [15]: > 90%
- inhibition [16]: > 90%
- inhibition [17]: > 90%
- inhibition [18]: 98.3%
Structure (SMILES): C=CC(=O)Nc1cc(CNc2nc(Nc3ccc(N4CCOCC4)c(OC)c3)c(C(N)=O)c3nccn23)ccc1Cl
- Activity (Splenocyte [2]): Active
- Activity (Splenocyte [4]): 10.8%
- Activity (Splenocyte [5]): inactive
- Activity (Splenocyte [6]): Dose-Dependent Effect
- Activity (Jurkat): Active
- Activity (Mus musculus [7]): Active
- Activity (Mus musculus [8]): Active
- Activity (Mus musculus [9]): Active
- Activity (Mus musculus [10]): Active
- Activity (Mus musculus [11]): Active
- IC50 (Splenocyte [12]): 64 nM

Source: ChEMBL document CHEMBL5365427, “Discovery and Structural Optimization of Covalent ZAP-70 Kinase Inhibitors against Psoriasis” (J Med Chem, 2023)
